The source of these data is patent US20260191853A1, “METHOD OF TREATING DRUG-INDUCED BRADYARRHYTHMIA” (OSAKA UNIVERSITY, priority 2022, published 2026).

Each structure is given as a SMILES string. Entries after “also recorded” stand apart in the source; their conditions may differ.

Common to all, as to assay type: in vivo
One assay relates to Hartley guinea pigs. Kind of assay: Preventive effect on fingolimod-induced bradyarrhythmia in isoflurane-anesthetized guinea pig model. On the procedure:
A solvent or compound (I) (free form) was administered by oral gavage at a dose of 1, 3, or 10 mg/kg (volume: 5 mL/kg) to Hartley guinea pigs (7 to 10 weeks old, male, available from Japan SLC, Inc.). After completion of the administration, each animal was subjected to anesthetic induction by inhalation of isoflurane (available from Pfizer Japan Inc.), and the animal was held on an operating table having a heater function. The trachea was incised, and a tracheal cannula (KN-375, available from Natsume Seisakusho Co., Ltd.) was inserted. The tracheal cannula was connected to a ventilator (SN-480-7, available from Shinano Seisakusho Co., Ltd.), and artificial respiration was controlled by supplying 100% oxygen at a volume of 10 mL and a ventilation rate of 60 times/minute. The solvent used was 0.5 w/v % methyl cellulose 400 solution (available from FUJIFILM Wako Pure Chemical Corporation). Isoflurane (available from Pfizer Japan Inc.) anesthesia (about 1 to 4%, carrier gas: 100% oxygen) was used for maintenance of anesthesia. A catheter (BD intramedic polyethylene tubing PE50, available from Becton, Dickinson and Company) charged with 50 units/mL heparin (available from AY PHARMACEUTICALS CO., LTD.) was inserted into each of the carotid artery and the jugular vein and placed in the blood vessel. Systemic blood pressure was measured with a high-sensitivity DC amplifier (AD-611J, available from NIHON KOHDEN CORPORATION) via the catheter placed in the carotid artery. Electrodes were attached to the body surface, and a body surface electrocardiogram was measured with a high-sensitivity amplifier (AB-611J, available from NIHON KOHDEN CORPORATION). Blood pressure and electrocardiogram data were acquired and analyzed with PowerLab/Labchart system (available from ADInstruments). Analysis items are systolic blood pressure, diastolic blood pressure, average blood pressure, heart rate, P-wave width, PR interval, QRS width, QT interval, and corrected QT interval. Corrected QT interval was calculated using the fridericia formula (QTc=QT interval/RR interval^1/3). After stabilization of each parameter, fingolimod hydrochloride (synthesized with reference to WO 2000/027798) was continuously administered intravenously at 0.1 mg/kg for 10 minutes via the catheter placed in the jugular vein, followed by observation of the presence or absence of the onset of bradyarrhythmia for 60 minutes. The solvent used was saline (available from Otsuka Pharmaceutical Factory, Inc.). Data were recorded and blood was collected 5, 10, 15, 20, 30, and 60 minutes after initiation of administration of fingolimod hydrochloride. The observation was terminated 60 minutes after initiation of the administration, and the animal was euthanized by exsanguination or intravenous administration of a large amount of pentobarbital or saturated potassium chloride solution under isoflurane anesthesia. Data were analyzed for atrial beating rate over time, ventricular beating rate over time, electrocardiographic parameters, the presence or absence of the onset of atrioventricular block, and plasma concentrations of compound (I), fingolimod, and fingolimod phosphorylated form. The plasma was collected by centrifuging the blood and cryopreserved at about −20° C. After thawing of the plasma, plasma drug concentrations were measured using LC/MS/MS after deproteinization with acetonitrile.
Atrioventricular block was defined as follows.
Second-degree atrioventricular block: atrial activation wave (P wave) is normal, which is followed by or not followed by ventricular activation wave (QRS wave).
Third-degree atrioventricular block: there is no electrical conduction between the atrium and the ventricle, and atrial and ventricular activation waves are generated independently, resulting in atrioventricular dissociation.
In FIG. 1, the measurements are shown as mean±standard error. […]

For assay [1], the system named is beagle dog. As to the kind of experiment: Therapeutic effect on propranolol-induced bradycardia in conscious beagle dog. The note with it: compound (I) dihydrochloride 0.01, 0.1, 1 mg/kg bolus i.v., FIG. 9. On the procedure:
A peripheral venous path was secured with an 18 G needle in the right forelimb of a beagle dog (body weight: about 10 kg, female, available from Oriental Yeast Co., Ltd.), and then held on an operating table. Heart rate was monitored with an electrocardiographic monitor worn on the animal. A manchette was worn on the left forelimb, and blood pressure was measured with an Omron automatic electronic sphygmomanometer. The left ventricular function was measured by the M-mode method using the echocardiographic left parasternal short-axis two-chamber view. After stabilization of the heart rate, propranolol (Inderal Injection, available from AstraZeneca K.K.) was administered by bolus intravenous injection at a dose of 2 mg/kg, followed by continuous intravenous injection at a dose of 1 mg/minute with a syringe pump. After the elapse of about 30 minutes, the stabilization of the heart rate was determined, and then saline and compound (I) dihydrochloride (0.01 mg/kg, 0.1 mg/kg, 1 mg/kg) were administered by bolus intravenous injection at 10-minute intervals. About 10 minutes after each administration, heart rate, blood pressure, and left ventricular function were measured and evaluated in a stable state. The solvent used was saline (available from Otsuka Pharmaceutical Factory, Inc.).

The test system of assay [2] is beagle dog. As to the kind of experiment: Therapeutic effect on verapamil-induced bradycardia in conscious beagle dog. Particulars: FIG. 10. Here is the method:
A peripheral venous path was secured with an 18 G needle in the right forelimb of a beagle dog (body weight: about 10 kg, female, available from Oriental Yeast Co., Ltd.), and then held on an operating table. Heart rate was monitored with an electrocardiographic monitor worn on the animal. A manchette was worn on the left forelimb, and blood pressure was measured with an Omron automatic electronic sphygmomanometer. The left ventricular function was measured by the M-mode method using the echocardiographic left parasternal short-axis two-chamber view. After stabilization of the heart rate, verapamil (intravenous injection of Vasolan, available from Eisai Co., Ltd.) was administered by continuous intravenous injection at a dose of 0.8 mg/kg/hour with a syringe pump. About 30 minutes after the initiation of administration, the dose was increased to 2.4 mg/kg/hour, and continuous infusion was continued. Since 2:1 atrioventricular block was continuously determined 17 minutes after an increase in the dose, the administration of verapamil was discontinued. Subsequently, saline and compound (I) dihydrochloride (0.01 mg/kg, 0.1 mg/kg, 1 mg/kg) were administered by bolus intravenous injection at 10-minute intervals. About 10 minutes after each administration, electrocardiogram, heart rate, blood pressure, and left ventricular function were measured and evaluated in a stable state. […]

On to `Cc1cc(CO)nc2cc3c(cc12)OC(C)(C)[C@H](O)[C@H]3NCCc1ccccc1` [Compound (I), (3R,4S)-7-Hydroxymethyl-2,2,9-trimethyl-4-(phenethylamino)-3,4-dihydro-2H-pyrano[2,3-g]quinoline-3-ol], for which the “cases in which fingolimod-induced atrioventricular block was not observed” value in the assay with Hartley guinea pigs (1 mg/kg oral gavage, four cases per group) is 75%; in the assay on Hartley guinea pigs (3 mg/kg oral gavage, four cases per group) it was 75%. Further, the “fingolimod-induced bradycardia (ventricular beating rate)” value in the assay with Hartley guinea pigs (3 mg/kg oral gavage, fingolimod hydrochloride 0.1 mg/kg i.v.) is on record as “almost restored”. In addition, the “fingolimod-induced bradycardia (ventricular beating rate / heart rate)” value is “completely restored; also recorded: completely resolved” with Hartley guinea pigs (10 mg/kg oral gavage, fingolimod hydrochloride 0.1 mg/kg i.v.) and “improved in a dose-dependent manner; also recorded: prevented a reduction in heart rate” with Hartley guinea pigs (compound (I) 1, 3, 10 mg/kg oral gavage before fingolimod hydrochloride 0.1 mg/kg i.v. over 10 min, FIG. 1). The “cases in which fingolimod-induced atrioventricular block was suppressed” value in the assay on Hartley guinea pigs (10 mg/kg oral gavage, four cases per group) turned out to be 100%. In addition, the “onset of fingolimod-induced bradyarrhythmia (atrioventricular block)” value with Hartley guinea pigs (1, 3, 10 mg/kg oral gavage, FIG. 1 and FIG. 2) is on record as “prevented the onset of fingolimod-induced bradyarrhythmia (atrioventricular block) in a dose-dependent manner”. Moreover, the “fingolimod-induced prolongation of QT time” value in the assay with Hartley guinea pigs (compound (I) oral gavage 1-10 mg/kg) is given as “almost completely suppressed”. In addition, the “effect on cardiac contraction inhibitory action of propranolol (left ventricular ejection fraction)” value in the assay on beagle dog [1] was “did not affect”. Besides, in the assay on beagle dog [1] (propranolol 2 mg/kg bolus then 1 mg/minute i.v.), the “propranolol-induced bradycardia (heart rate)” value was “improved bradycardia”. The “verapamil-induced bradyarrhythmia (2:1 atrioventricular block)” value is listed as “exhibited a termination effect” with beagle dog [2] (0.1 mg/kg bolus i.v.) and “improved bradyarrhythmia; also recorded: recovery to 1:1 atrioventricular conduction” with beagle dog [2] (compound (I) dihydrochloride 0.01, 0.1, 1 mg/kg bolus i.v. after verapamil infusion up to 2.4 mg/kg/hour).
